Laboratory results published in patent US20140249135A1, “PIM KINASE INHIBITORS AND METHODS OF THEIR USE” (NOVARTIS AG, priority 2007, published 2014).
Read-outs that look alike come from different tables or passages of the source.

Experiments:
Pim1 kinase = Pim1 kinase (Homo sapiens, UniProt P11309); assay: Pim1 ATP depletion assay; assay type: biochemical; conditions: Pim1 ATP depletion assay;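 also: Luciferase-luciferin luminescence readout of residual ATP after PIM1 transfers phosphate to a peptide substrate, 40 µM ATP added, reaction run to roughly half ATP consumption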
Pim2 kinase = Pim2 kinase (Homo sapiens, UniProt Q9P1W9); assay: Pim2 ATP depletion assay; assay type: biochemical;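 also: Luciferase-based luminescent readout of ATP remaining after PIM2 phosphorylates a BAD peptide, final 5 nM enzyme, 4 µM ATP, 10 µM peptide, 2.5% DMSO, run to roughly half ATP consumption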
Pim3 kinase = Pim3 kinase (Homo sapiens, UniProt Q86V86); assay: Pim3 ATP depletion assay; assay type: biochemical
KDR kinase = KDR kinase (Homo sapiens, UniProt P35968); assay: KDR AlphaScreen assay; conditions: KDR IC50 (μM)
Chain of KDR kinase (P35968 20-1356): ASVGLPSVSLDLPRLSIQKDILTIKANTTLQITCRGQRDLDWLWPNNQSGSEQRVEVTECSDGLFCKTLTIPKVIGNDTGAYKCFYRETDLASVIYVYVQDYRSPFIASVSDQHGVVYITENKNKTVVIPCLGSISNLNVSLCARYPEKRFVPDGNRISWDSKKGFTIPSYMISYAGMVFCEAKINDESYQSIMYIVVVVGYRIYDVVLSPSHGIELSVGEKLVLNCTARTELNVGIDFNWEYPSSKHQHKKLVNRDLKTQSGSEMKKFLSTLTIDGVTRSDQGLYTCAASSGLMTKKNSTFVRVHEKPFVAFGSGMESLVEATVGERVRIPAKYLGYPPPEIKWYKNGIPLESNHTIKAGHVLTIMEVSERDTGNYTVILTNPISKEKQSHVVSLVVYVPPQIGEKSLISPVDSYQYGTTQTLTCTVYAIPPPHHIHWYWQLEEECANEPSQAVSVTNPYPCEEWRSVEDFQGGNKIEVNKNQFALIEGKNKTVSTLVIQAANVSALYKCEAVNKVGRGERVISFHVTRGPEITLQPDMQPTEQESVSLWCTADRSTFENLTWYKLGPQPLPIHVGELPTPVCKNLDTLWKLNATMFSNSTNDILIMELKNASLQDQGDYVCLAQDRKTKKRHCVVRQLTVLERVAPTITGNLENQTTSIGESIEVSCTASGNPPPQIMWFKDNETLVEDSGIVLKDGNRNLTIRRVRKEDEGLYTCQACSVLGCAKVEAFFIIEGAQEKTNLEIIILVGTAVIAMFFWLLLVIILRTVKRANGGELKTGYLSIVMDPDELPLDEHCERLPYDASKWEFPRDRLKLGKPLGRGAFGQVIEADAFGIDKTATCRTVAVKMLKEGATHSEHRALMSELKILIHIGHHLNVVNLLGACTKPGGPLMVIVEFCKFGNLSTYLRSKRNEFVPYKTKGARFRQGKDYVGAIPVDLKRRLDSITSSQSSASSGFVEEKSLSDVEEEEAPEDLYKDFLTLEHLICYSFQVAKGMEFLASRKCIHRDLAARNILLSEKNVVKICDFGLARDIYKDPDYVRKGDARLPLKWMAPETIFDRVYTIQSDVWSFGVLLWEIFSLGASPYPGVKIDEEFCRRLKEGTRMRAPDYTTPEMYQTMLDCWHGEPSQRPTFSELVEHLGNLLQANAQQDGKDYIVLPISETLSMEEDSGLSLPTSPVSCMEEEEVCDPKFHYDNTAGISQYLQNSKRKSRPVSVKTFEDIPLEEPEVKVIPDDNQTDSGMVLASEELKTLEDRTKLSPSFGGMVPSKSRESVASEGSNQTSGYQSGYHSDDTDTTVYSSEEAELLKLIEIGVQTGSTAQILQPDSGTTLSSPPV

Chain of Pim1 kinase (P11309 whole entry): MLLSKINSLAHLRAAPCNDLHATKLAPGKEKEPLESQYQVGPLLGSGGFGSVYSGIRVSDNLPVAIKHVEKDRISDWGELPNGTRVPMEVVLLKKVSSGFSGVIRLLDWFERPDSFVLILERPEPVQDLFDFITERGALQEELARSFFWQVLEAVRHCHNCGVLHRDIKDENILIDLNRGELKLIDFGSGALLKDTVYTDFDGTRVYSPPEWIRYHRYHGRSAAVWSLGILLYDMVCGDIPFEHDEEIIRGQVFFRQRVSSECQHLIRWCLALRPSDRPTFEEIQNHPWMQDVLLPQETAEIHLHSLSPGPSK
Chain of Pim2 kinase (Q9P1W9 whole entry): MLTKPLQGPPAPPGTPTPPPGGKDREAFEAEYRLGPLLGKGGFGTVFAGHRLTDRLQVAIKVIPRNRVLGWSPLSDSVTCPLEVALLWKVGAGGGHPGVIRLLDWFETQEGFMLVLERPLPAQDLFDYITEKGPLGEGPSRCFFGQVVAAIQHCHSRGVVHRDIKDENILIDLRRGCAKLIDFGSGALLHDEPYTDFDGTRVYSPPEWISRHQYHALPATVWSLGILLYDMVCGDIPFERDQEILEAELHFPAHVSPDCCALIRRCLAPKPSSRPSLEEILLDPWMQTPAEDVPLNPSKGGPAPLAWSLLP

Row | IC50 (Pim1 kinase; read-out: IC50 (μM) PIM1) | IC50 (Pim2 kinase; read-out: IC50 (μM) PIM2) | IC50 (Pim3 kinase; read-out: IC50 (μM) PIM3) | IC50 (KDR kinase) | IC50 (Pim1 kinase; read-out: PIM1 IC50) | IC50 (Pim2 kinase; read-out: PIM2 IC50) | IC50 (Pim3 kinase; read-out: PIM3 IC50) | Compound
1 | < 1 µM | < 1 µM | < 1 µM | 10 to 25 µM | – | – | – | CC(C)NC(=O)c1ccc(F)c(-c2ccc(N)c(C(=O)Nc3cnccc3N3CCCC(O)(C(F)(F)F)C3)n2)c1 (stereo not drawn) [Example 163, 3-Amino-6-(2-fluoro-5-isopropylcarbamoyl-phenyl)-pyridine-2-carboxylic acid (3-hydroxy-3-trifluoromethyl-3,4,5,6-tetrahydro-2H-[1,4′]bi-pyridinyl-3′-yl)-amide]
2 | < 1 µM | < 1 µM | < 1 µM | 10 to 25 µM | – | – | – | Nc1ccc(-c2ccccc2F)nc1C(=O)Nc1cnccc1N1CCCC(O)(C(F)(F)F)C1 (stereo not drawn) [Example 164, 3-Amino-6-(2-fluoro-phenyl)-pyridine-2-carboxylic acid (3-hydroxy-3-trifluoromethyl-3,4,5,6-tetrahydro-2H-[1,4′]bi-pyridinyl-3′-yl)-amide]
3 | < 1 µM | < 1 µM | < 1 µM | 1 to 10 µM | – | – | – | Cc1nc(N)cc(-c2ccncc2NC(=O)c2nc(-c3ccccc3)ncc2N)n1 [Example 268, 5-Amino-2-phenyl-pyrimidine-4-carboxylic acid [4-(6-amino-2-methyl-pyrimidin-4-yl)-pyridin-3-yl]-amide]
4 | < 1 µM | < 1 µM | < 1 µM | 10 to 25 µM | – | – | – | CSc1nc(N)cc(-c2ccncc2NC(=O)c2nc(-c3c(F)cccc3F)ccc2N)n1 [Example 275, 3-Amino-6-(2,6-difluoro-phenyl)-pyridine-2-carboxylic acid [4-(6-amino-2-methylsulfanyl-pyrimidin-4-yl)-pyridin-3-yl]-amide]
5 | < 1 µM | < 1 µM | < 1 µM | 10 to 25 µM | – | – | – | Nc1cc(F)c(-c2c(F)ccc(OCc3ccccc3)c2F)nc1C(=O)Nc1cnccc1N1CCC[C@H](N)C1 [Example 505, 3-Amino-6-(3-benzyloxy-2,6-difluoro-phenyl)-5-fluoro-pyridine-2-carboxylic acid (3-amino-3,4,5,6-tetrahydro-2H-[1,4′]bipyridinyl-3′-yl)-amide]
6 | < 1 µM | < 1 µM | < 1 µM | 1 to 10 µM | – | – | – | CSc1nc(N)cc(-c2ccncc2NC(=O)c2nc(-c3cc(C(=O)NC(C)C)ccc3F)ccc2N)n1 [Example 534, 3-Amino-6-(2-fluoro-5-isopropylcarbamoyl-phenyl)-pyridine-2-carboxylic acid [4-(6-amino-2-methylsulfanyl-pyrimidin-4-yl)-pyridin-3-yl]-amide]
7 | – | – | – | 10 to 25 µM | < 1 µM | < 1 µM | < 1 µM | CSc1nc(N)cc(-c2ccncc2NC(=O)c2nc(-c3cc(C(=O)N(C)C)ccc3F)ccc2N)n1 [Example 535, 3-Amino-6-(5-dimethylcarbamoyl-2-fluoro-phenyl)-pyridine-2-carboxylic acid [4-(6-amino-2-methylsulfanyl-pyrimidin-4-yl)-pyridin-3-yl]-amide]
8 | – | – | – | 10 to 25 µM | < 1 µM | < 1 µM | < 1 µM | Cc1cc(-c2ccncc2NC(=O)c2nc(-c3c(F)ccc(OC(C)C)c3F)ccc2N)cc(N)n1 [Example 538, 3-Amino-6-(2,6-difluoro-3-isopropoxy-phenyl)-pyridine-2-carboxylic acid (2′-amino-6′-methyl-[4,4′]bipyridinyl-3-yl)-amide]

The next lines start with the compound.

Row | Compound | IC50 (Pim1 kinase; read-out: IC50 (μM) PIM1) | IC50 (Pim2 kinase; read-out: IC50 (μM) PIM2) | IC50 (Pim3 kinase; read-out: IC50 (μM) PIM3) | IC50 (KDR kinase) | IC50 (Pim1 kinase; read-out: PIM1 IC50) | IC50 (Pim2 kinase; read-out: PIM2 IC50) | IC50 (Pim3 kinase; read-out: PIM3 IC50)
9 | Nc1cnc(-c2c(F)cccc2F)nc1C(=O)Nc1cnccc1N1CCCC(O)(C(F)(F)F)C1 (stereo not drawn) [Example 165, 5-Amino-2-(2,6-difluoro-phenyl)-pyrimidine-4-carboxylic acid (3-hydroxy-3-trifluoromethyl-3,4,5,6-tetra-hydro-2H-[1,4′]bipyridinyl-3′-yl)-amide] | < 1 µM | < 1 µM | < 1 µM | 10 to 25 µM | – | – | –
10 | Nc1cnc(-c2ccccc2F)nc1C(=O)Nc1cnccc1N1CCCC(O)(C(F)(F)F)C1 (stereo not drawn) [Example 166, 5-Amino-2-(2-fluoro-phenyl)-pyrimidine-4-carboxylic acid (3-hydroxy-3-trifluoromethyl-3,4,5,6-tetrahydro-2H-[1,4′]bi-pyridinyl-3′-yl)-amide] | < 1 µM | < 1 µM | < 1 µM | 10 to 25 µM | – | – | –
11 | N[C@H]1CCCN(c2ccncc2NC(=O)c2ccnc(-c3c(F)cccc3F)n2)C1 [Example 249, N-{4-[(3S)-3-aminopiperidin-1-yl]pyridin-3-yl}-2-(2,6-difluorophenyl)pyrimidine-4-carboxamide N-{4-[(3S)-3-aminopiperidin-1-yl]pyridin-3-yl}-2-(2,6-difluorophenyl)-pyrimidine-4-carboxamide] | < 1 µM | < 1 µM | < 1 µM | 10 to 25 µM | – | – | –
12 | CC1(N)CCCN(c2ccncc2NC(=O)c2nc(-c3ccccc3)ncc2N)C1 (stereo not drawn) [Example 261, 5-Amino-2-phenyl-pyrimidine-4-carboxylic acid (3-amino-3-methyl-3,4,5,6-tetrahydro-2H-[1,4′]bipyridinyl-3′-yl)-amide] | < 1 µM | < 1 µM | < 1 µM | 1 to 10 µM | – | – | –
13 | Nc1cc(-c2ccccc2)cnc1C(=O)Nc1cnccc1N1CCC[C@H](N)C1 [Example 264, 3-Amino-5-phenyl-pyridine-2-carboxylic acid (3-amino-3,4,5,6-tetrahydro-2H-[1,4′]bipyridinyl-3′-yl)-amide] | < 1 µM | < 1 µM | < 1 µM | < 1 µM | – | – | –
14 | Nc1cnc(-c2ccccc2)nc1C(=O)Nc1cnccc1N1CCC[C@H](N)C1 [Example 265, 5-Amino-2-phenyl-pyrimidine-4-carboxylic acid (3-amino-3,4,5,6-tetrahydro-2H-[1,4′]bipyridinyl-3′-yl)-amide] | < 1 µM | < 1 µM | < 1 µM | 10 to 25 µM | – | – | –
15 | Nc1ccc(-c2scc3c2OCCO3)nc1C(=O)Nc1cnccc1N1CCC[C@H](N)C1 [Example 447, 3-Amino-6-(2,3-dihydro-thieno[3,4-b][1,4]dioxin-5-yl)-pyridine-2-carboxylic acid (3-amino-3,4,5,6-tetrahydro-2H-[1,4′]bipyridinyl-3′-yl)-amide] | < 1 µM | < 1 µM | < 1 µM | 10 to 25 µM | – | – | –
16 | N[C@H]1CCCN(c2ccncc2NC(=O)c2cccc(-c3ccccc3F)n2)C1 [Example 455, 6-(2-Fluoro-phenyl)-pyridine-2-carboxylic acid (3-amino-3,4,5,6-tetrahydro-2H-[1,4′]bipyridinyl-3′-yl)-amide] | < 1 µM | < 1 µM | < 1 µM | 10 to 25 µM | – | – | –
17 | N[C@H]1CCCN(c2ccncc2NC(=O)c2cccc(-c3ccccc3)n2)C1 [Example 487, 6-Phenyl-pyridine-2-carboxylic acid (3-amino-3,4,5,6-tetrahydro-2H-[1,4′]bipyridinyl-3′-yl)-amide] | < 1 µM | < 1 µM | < 1 µM | 10 to 25 µM | – | – | –
18 | Nc1ccc(-c2cnc(N)c(OCC(F)(F)F)n2)nc1C(=O)Nc1cnccc1N1CCC[C@H](N)C1 [Example 519, 3-Amino-6-[5-amino-6-(2,2,2-trifluoro-ethoxy)-pyrazin-2-yl]-pyridine-2-carboxylic acid (3-amino-3,4,5,6-tetrahydro-2H-[1,4′]bipyridinyl-3′-yl)-amide] | < 1 µM | < 1 µM | < 1 µM | 10 to 25 µM | – | – | –
19 | Nc1ccc(-c2cncc(OCC3CC3)n2)nc1C(=O)Nc1cnccc1N1CCC[C@H](N)C1 [Example 521, 3-Amino-6-(6-cyclopropylmethoxy-pyrazin-2-yl)-pyridine-2-carboxylic acid (3-amino-3,4,5,6-tetrahydro-2H-[1,4′]bipyridinyl-3′-yl)-amide] | < 1 µM | < 1 µM | < 1 µM | 1 to 10 µM | – | – | –
20 | Nc1ccc(-c2cncc(O)n2)nc1C(=O)Nc1cnccc1N1CCC[C@H](N)C1 [Example 522, 3-Amino-6-(6-hydroxy-pyrazin-2-yl)-pyridine-2-carboxylic acid (3-amino-3,4,5,6-tetrahydro-2H-[1,4′]bipyridinyl-3′-yl)-amide] | < 1 µM | < 1 µM | < 1 µM | 1 to 10 µM | – | – | –
21 | CC(C)COc1cncc(-c2ccc(N)c(C(=O)Nc3cnccc3N3CCC[C@H](N)C3)n2)n1 [Example 523, 3-Amino-6-(6-isobutoxy-pyrazin-2-yl)-pyridine-2-carboxylic acid (3-amino-3,4,5,6-tetrahydro-2H-[1,4′]bipyridinyl-3′-yl)-amide] | < 1 µM | < 1 µM | < 1 µM | 10 to 25 µM | – | – | –
22 | Nc1ccc(-c2ccccc2)nc1C(=O)Nc1cnccc1N1CCC[C@H](N)C1 [Example 524, 3-Amino-6-phenyl-pyridine-2-carboxylic acid (3-amino-3,4,5,6-tetrahydro-2H-[1,4′]bipyridinyl-3′-yl)-amide] | < 1 µM | < 1 µM | < 1 µM | 1 to 10 µM | – | – | –
23 | CC(C)NC(=O)c1ccc(F)c(-c2ncc(N)c(C(=O)Nc3cnccc3N3CCC[C@H](N)C3)n2)c1 [Example 542, 5-Amino-2-(2-fluoro-5-isopropylcarbamoyl-phenyl)-pyrimidine-4-carboxylic acid (3-amino-3,4,5,6-tetrahydro-2H-[1,4′]bipyridinyl-3′-yl)-amide] | – | – | – | 10 to 25 µM | < 1 µM | < 1 µM | < 1 µM
24 | Cc1ccc(F)c(-c2ncc(N)c(C(=O)Nc3cnccc3N3CCC[C@H](N)C3)n2)c1 [Example 543, 5-Amino-2-(2-fluoro-5-methyl-phenyl)-pyrimidine-4-carboxylic acid (3-amino-3,4,5,6-tetrahydro-2H-[1,4′]bipyridinyl-3′-yl)-amide] | – | – | – | 10 to 25 µM | < 1 µM | < 1 µM | < 1 µM
